Data published in publication PMC6268071, “α-Glucosidase Inhibitory Constituents from Acanthopanax senticosus Harm Leaves” (Molecules, 2012).
Where two headings read alike, the source gives them in different places.

Molecular target: α-Glucosidase (EC.3.2.1.20) from Saccharomyces sp.
Assay: α-Glucosidase inhibition assay
Format: biochemical
Procedure: Open column chromatography was carried out using silica gel (200–300 mesh, Qingdao Marine Chemical Co., Qingdao, China) or octadecyl silica gel (ODS, 25–40 μm, Fuji, Tokyo, Japan) as stationary phases. TLC employed precoated silica gel plates (5–7 μm, Qingdao Marine Chemical Co., Qingdao, China). Preparative HPLC was carried out on a Waters 600 instument equipped with a Waters RID-2414 detector. A Waters Sunfire prep C18 OBD (19 × 250 mm i.d.; Milford, PA, USA) column was used for preparative purposes. The IR spectra were recorded as KBr pellets on a Jasco 302-A spectrometer. Optical rotation was recorded on a Jasco P-2000 polarimeter. HRESIMS were measured on a FTMS-7 instrument (Bruker Daltonics, Karlsruhe, Germany). Melting points were determined on a Gallenkemp apparatus and are uncorrected. The ^1H-, ^13C- and 2D (^1H-^1H COSY, HSQC, HMBC, NOESY) NMR spectra were recorded on a Bruker AMX-400 spectrometer using standard pulse sequences. Chemical shifts are reported in ppm (δ), and scalar coupling are reported in Hz. GC analyses were carried out using a Fuli 9790 instrument, DM-5 column (0.25 μm, 30 m × 0.25 mm, Dikma, Beijing, China). α-Glucosidase (EC.3.2.1.20) from Saccharomyces sp. was purchased from Wako Pure Chemical Indutries Ltd. (Wako 076-02841; Osaka, Japan).
The α-glucosidase (EC.3.2.1.20) enzyme inhibition assay has been performed according to the literature. α-Glucosidase (25 μL, 0.2 U/mL), various concentrations of samples (25 μL), and 67 mM phosphate buffer (pH 6.8, 175 μL) were mixed at room temperature for 10 min. Reactions were initiated by the addition of 23.2 mM p-nitrophenyl-α-D-glucopyranoside (25 μL). The reaction mixtures were incubated at 37 °C for 15 min in a final volume of 250 μL, and then 1 M Na2CO3 (50 μL) was added to the incubation solution to stop the reaction. The activities of glucosidase were detected in a 96-well plate, and the absorbance was read at 405 nm by a microplate spectrophotometer (Spectra Max, Molecular Devices, Sunnyvale, CA, USA). The negative control was prepared by adding phosphate buffer instead of the sample in the same way as the test. […] The blank was prepared by adding phosphate buffer instead of α-glucosidase using the same method. The inhibition rates (%) were calculated from the formula: […]

[1] = in vitro α-glucosidase inhibitory assay, substrate p-nitrophenyl-α-D-glucopyranoside, pH 6.8, 37 °C, value ± SEM, read-out: IC50 (μM ± SEM)
[2] = read-out: α-glucosidase inhibitory activity IC50

SMILES	IC50 [1]	IC50 [2]	α-glucosidase inhibition activity (in words) (qualitative statement)
COC(=O)[C@H]1O[C@@H](O[C@H]2CC[C@@]3(C)C(CC[C@]4(C)C3CC=C3C5CC(C)(C)CC[C@]5(C(=O)O)CC[C@]34C)C2(C)C)[C@H](O[C@@H]2O[C@@H](C)[C@H](O)[C@@H](O)[C@H]2O)[C@@H](O)[C@@H]1O (stereo partly drawn) [Compound 1, 3-O-[(α-L-rhamnopyranosyl)(1→2)]-[β-D-glucuronopyranosyl-6-O-methyl ester]-olean-12-ene-28-olic acid]	908 ± 67.3 µM	186 µM	–
C=C(C)[C@@H]1CC[C@]2(C(=O)O[C@@H]3O[C@H](CO[C@@H]4O[C@H](CO)[C@@H](O[C@@H]5O[C@@H](C)[C@H](O)[C@@H](O)[C@H]5O)[C@H](O)[C@H]4O)[C@@H](O)[C@H](O)[C@H]3O)CC[C@]3(C)[C@H](C[C@H]4OC(=O)C[C@@H](O)[C@]5(C)[C@@H]4[C@@]3(C)CC[C@H]5C(=C)C)[C@@H]12 [Compound 3, chiisanoside]	> 1000 µM	–	–
C=C(C)[C@@H]1C[C@H](O)[C@]2(C(=O)O[C@@H]3O[C@H](CO[C@@H]4O[C@H](CO)[C@@H](O[C@@H]5O[C@@H](C)[C@H](O)[C@@H](O)[C@H]5O)[C@H](O)[C@H]4O)[C@@H](O)[C@H](O)[C@H]3O)CC[C@]3(C)[C@H](C[C@H]4OC(=O)C[C@@H](O)[C@]5(C)[C@@H]4[C@@]3(C)CC[C@H]5C(=C)C)[C@@H]12 [Compound 4, 22α-hydroxychiisanoside]	820 ± 91.6 µM	908 µM	–
COC(=O)CC1C(=O)Nc2ccc(OC)cc21 (stereo not drawn) [Compound 5, 5-methoxy-2-oxoindolin-3-acetic acid methyl ester]	> 1000 µM	–	–

Second part, led by results:

IC50 [1]	IC50 [2]	SMILES	α-glucosidase inhibition activity (in words) (qualitative statement)
> 1000 µM	–	O=C(O)c1cc2c([nH]c3ccccc32)c(-c2ccc(CO)o2)n1 [Compound 8, 3-carboxylperlolyrine]	–
> 1000 µM	–	OCc1ccc(-c2nccc3c2[nH]c2ccccc23)o1 [Compound 7, perlolyrine]	–
> 1000 µM	–	COC(=O)[C@H]1O[C@@H](O[C@H]2CC[C@@]3(C)C(CC[C@]4(C)C3CC=C3C5CC(C)(C)CC[C@]5(C(=O)O)CC[C@]34C)C2(C)C)[C@H](O)[C@@H](O)[C@@H]1O (stereo partly drawn) [Compound 2, 3-O-(β-D-glucuronopyranosyl-6-O-methyl ester)-olean-12-ene-28-olic acid]	–
186 ± 12 µM	820 µM	Oc1ccc([C@H]2Oc3cc(O)cc(O)c3C[C@@H]2O)cc1 [Compound 6, (+)-afzelechin]	significant α-glucosidase inhibition activity
